The target of one assay is T1, LRRK2 WT (Homo sapiens, UniProt Q5S007).
T1 construct: purchased Life Technologies PR8604B
Briefly: LRRK2 Kinase Activity Assay (LanthaScreen TR-FRET), wild type. The class given is biochemical. The note with it: recombinant wild type LRRK2, 25 μM ATP, 400 nM LRRKtide, 60 min; class symbols. In short, it runs like this: (§1)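 Recombinant wild-type or G2019S LRRK2 incubated with fluorescein-labeled LRRKtide (ERM-based) peptide, ATP and serially diluted compound for 60 min at room temperature.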
A general note: In TR-FRET formats the signal depends on donor and acceptor labels being close together.

For another assay, the target named is T2, LRRK2 G2019S (Homo sapiens, UniProt Q5S007, G2019S).
T2 construct: purchased Life Technologies PV4881
Briefly: LRRK2 Kinase Activity Assay (LanthaScreen TR-FRET), G2019S. The class given is biochemical. The note with it: recombinant G2019S-LRRK2, 25 μM ATP, 400 nM LRRKtide, 60 min; class symbols. In short, it runs like this:
as §1

T1 sequence (Q5S007 whole entry): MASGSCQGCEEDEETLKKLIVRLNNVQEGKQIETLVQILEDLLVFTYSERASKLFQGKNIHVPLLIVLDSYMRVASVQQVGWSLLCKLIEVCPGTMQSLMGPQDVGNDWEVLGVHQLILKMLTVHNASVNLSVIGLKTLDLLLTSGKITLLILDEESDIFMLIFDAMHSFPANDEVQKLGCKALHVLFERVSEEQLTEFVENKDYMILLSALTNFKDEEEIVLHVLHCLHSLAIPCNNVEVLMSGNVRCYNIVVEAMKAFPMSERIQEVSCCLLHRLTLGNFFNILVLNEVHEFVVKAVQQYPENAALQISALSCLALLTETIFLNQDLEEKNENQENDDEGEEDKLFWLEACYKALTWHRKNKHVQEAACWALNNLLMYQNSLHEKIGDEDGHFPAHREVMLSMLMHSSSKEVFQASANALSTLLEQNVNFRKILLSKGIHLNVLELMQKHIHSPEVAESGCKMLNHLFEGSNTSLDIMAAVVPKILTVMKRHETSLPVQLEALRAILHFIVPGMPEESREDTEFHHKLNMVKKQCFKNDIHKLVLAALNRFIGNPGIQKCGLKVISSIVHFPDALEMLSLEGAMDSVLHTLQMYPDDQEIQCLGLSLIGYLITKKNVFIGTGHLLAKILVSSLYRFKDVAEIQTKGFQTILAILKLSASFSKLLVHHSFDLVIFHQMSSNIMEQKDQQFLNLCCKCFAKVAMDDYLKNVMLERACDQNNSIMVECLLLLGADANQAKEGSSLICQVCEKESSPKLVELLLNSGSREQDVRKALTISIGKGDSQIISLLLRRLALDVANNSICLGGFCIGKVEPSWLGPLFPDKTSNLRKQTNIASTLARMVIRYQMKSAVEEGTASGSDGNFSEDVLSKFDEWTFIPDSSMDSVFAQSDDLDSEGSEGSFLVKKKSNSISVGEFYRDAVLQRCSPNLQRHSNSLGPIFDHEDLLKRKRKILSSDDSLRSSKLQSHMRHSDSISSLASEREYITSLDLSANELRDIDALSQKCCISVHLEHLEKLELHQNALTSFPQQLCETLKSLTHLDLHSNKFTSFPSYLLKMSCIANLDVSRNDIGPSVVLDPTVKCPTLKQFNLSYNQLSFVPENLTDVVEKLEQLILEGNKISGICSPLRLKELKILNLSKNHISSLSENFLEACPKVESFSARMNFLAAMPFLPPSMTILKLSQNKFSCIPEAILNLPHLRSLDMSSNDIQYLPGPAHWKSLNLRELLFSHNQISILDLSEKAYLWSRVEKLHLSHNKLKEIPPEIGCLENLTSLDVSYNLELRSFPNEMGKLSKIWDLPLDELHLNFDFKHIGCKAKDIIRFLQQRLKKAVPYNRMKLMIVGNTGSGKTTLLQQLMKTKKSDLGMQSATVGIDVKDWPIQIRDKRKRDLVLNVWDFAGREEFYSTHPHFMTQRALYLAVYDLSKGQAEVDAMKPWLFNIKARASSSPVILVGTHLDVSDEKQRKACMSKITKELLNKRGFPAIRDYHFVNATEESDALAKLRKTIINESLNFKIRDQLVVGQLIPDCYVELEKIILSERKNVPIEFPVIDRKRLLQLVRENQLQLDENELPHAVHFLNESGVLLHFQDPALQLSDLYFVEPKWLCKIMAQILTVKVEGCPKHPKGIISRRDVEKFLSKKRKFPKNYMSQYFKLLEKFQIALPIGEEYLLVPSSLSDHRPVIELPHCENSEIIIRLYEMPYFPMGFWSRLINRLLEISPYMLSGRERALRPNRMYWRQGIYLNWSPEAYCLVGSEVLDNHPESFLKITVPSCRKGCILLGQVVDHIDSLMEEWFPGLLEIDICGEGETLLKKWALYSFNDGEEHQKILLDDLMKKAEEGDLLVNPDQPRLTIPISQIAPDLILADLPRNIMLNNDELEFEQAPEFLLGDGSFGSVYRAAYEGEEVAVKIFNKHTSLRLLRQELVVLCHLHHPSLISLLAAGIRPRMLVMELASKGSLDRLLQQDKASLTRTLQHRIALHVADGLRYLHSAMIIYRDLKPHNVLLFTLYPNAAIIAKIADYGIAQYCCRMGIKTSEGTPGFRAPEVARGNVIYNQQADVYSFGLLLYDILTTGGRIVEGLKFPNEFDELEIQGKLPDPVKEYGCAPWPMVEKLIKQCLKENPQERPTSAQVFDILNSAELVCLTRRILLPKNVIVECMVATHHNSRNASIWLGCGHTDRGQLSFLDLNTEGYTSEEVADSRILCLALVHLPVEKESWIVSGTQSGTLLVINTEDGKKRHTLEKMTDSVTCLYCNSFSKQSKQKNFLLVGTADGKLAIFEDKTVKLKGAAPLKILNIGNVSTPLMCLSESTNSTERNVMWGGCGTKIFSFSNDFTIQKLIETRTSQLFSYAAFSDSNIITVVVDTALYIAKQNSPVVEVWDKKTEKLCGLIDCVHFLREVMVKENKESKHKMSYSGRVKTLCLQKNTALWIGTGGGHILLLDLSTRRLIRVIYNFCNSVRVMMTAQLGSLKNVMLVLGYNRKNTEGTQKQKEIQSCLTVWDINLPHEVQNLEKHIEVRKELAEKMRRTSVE
T2 sequence (Q5S007 whole entry G2019S): as the sequence (Q5S007 whole entry) above, with G2019S counted along it

Regarding `N#Cc1cnc2c(c1)CCC[C@@H]2Nc1ccc2[nH]nc(-c3cncs3)c2c1` (single isomer, unassigned) [Example 142, enantiomer 1, 8-((3-(Thiazol-5-yl)-1H-indazol-5-yl)amino)-5,6,7,8-tetrahydroquinoline-3-carbonitrile], the IC50 at LRRK2 WT was 100 to 1000 nM; on LRRK2 G2019S, under 100 nM.
As for `N#Cc1ccc2c(c1Cl)CCC[C@@H]2Nc1ccc2[nH]nc(-c3cnco3)c2c1` (single isomer, unassigned) [Example 143, enantiomer 1, 1-Chloro-5-((3-(oxazol-5-yl)-1H-indazol-5-yl)amino)-5,6,7,8-tetrahydronaphthalene-2-carbonitrile], the IC50 was 100 to 1000 nM at LRRK2 WT and under 100 nM on LRRK2 G2019S.
Turning to `N#Cc1cnc2c(c1Cl)CCC[C@@H]2Nc1ccc2[nH]nc(-c3cnco3)c2c1` (single isomer, unassigned) [Example 144, enantiomer 1, 4-Chloro-8-((3-(oxazol-5-yl)-1H-indazol-5-yl)amino)-5,6,7,8-tetrahydroquinoline-3-carbonitrile], the IC50 at LRRK2 WT and on LRRK2 G2019S was 100 to 1000 nM each time.
As to `N#Cc1cnc2c(c1Cl)CCC[C@@H]2Nc1ccc2[nH]nc(-c3cnco3)c2c1` (single isomer, unassigned) [Example 144, enantiomer 2, 4-Chloro-8-((3-(oxazol-5-yl)-1H-indazol-5-yl)amino)-5,6,7,8-tetrahydroquinoline-3-carbonitrile], the IC50 on LRRK2 WT and at LRRK2 G2019S was under 100 nM in each case.
For `N#Cc1cnc2c(c1C(F)(F)F)CCC[C@@H]2Nc1ccc2[nH]nc(-c3cnco3)c2c1` (single isomer, unassigned) [Example 145, enantiomer 1, 8-((3-(Oxazol-5-yl)-1H-indazol-5-yl)amino)-4-(trifluoromethyl)-5,6,7,8-tetrahydroquinoline-3-carbonitrile], the 50% inhibitory concentration (IC50) at LRRK2 WT is 100 to 1000 nM; on LRRK2 G2019S it was under 100 nM.
`COc1c(C#N)cnc2c1CCC[C@@H]2Nc1ccc2[nH]nc(-c3cnco3)c2c1` (single isomer, unassigned) [Example 146, enantiomer 1, 4-Methoxy-8-((3-(oxazol-5-yl)-1H-indazol-5-yl)amino)-5,6,7,8-tetrahydroquinoline-3-carbonitrile]: the IC50 was 100 to 1000 nM on LRRK2 WT and under 100 nM on LRRK2 G2019S.
In the case of `N#Cc1cnc2c(c1C(F)F)CCC[C@@H]2Nc1ccc2[nH]nc(-c3cnco3)c2c1` (single isomer, unassigned) [Example 147, enantiomer 1, 4-(Difluoromethyl)-8-((3-(oxazol-5-yl)-1H-indazol-5-yl)amino)-5,6,7,8-tetrahydroquinoline-3-carbonitrile], the IC50 on LRRK2 WT and at LRRK2 G2019S was under 100 nM each time.
Regarding `N#Cc1cnc2c(c1C(F)F)CCC[C@@H]2Nc1ccc2[nH]nc(-c3cnco3)c2c1` (single isomer, unassigned) [Example 147, enantiomer 2, 4-(Difluoromethyl)-8-((3-(oxazol-5-yl)-1H-indazol-5-yl)amino)-5,6,7,8-tetrahydroquinoline-3-carbonitrile], the concentration for half-maximal inhibition (IC50) on LRRK2 WT was 100 to 1000 nM; on LRRK2 G2019S, under 100 nM.
As to `N#Cc1cnc2c(c1)CCC[C@@H]2Nc1ccc2[nH]nc(-c3ccc[nH]3)c2c1` (single isomer, unassigned) [Example 148, enantiomer 1, 8-((3-(1H-Pyrrol-2-yl)-1H-indazol-5-yl)amino)-5,6,7,8-tetrahydroquinoline-3-carbonitrile], the half-inhibitory concentration (IC50) on LRRK2 WT and at LRRK2 G2019S was under 100 nM throughout.
Regarding `N#Cc1cnc2c(c1)CCC[C@@H]2Nc1ccc2[nH]nc(-c3ccc[nH]3)c2c1` (single isomer, unassigned) [Example 148, enantiomer 2, 8-((3-(1H-Pyrrol-2-yl)-1H-indazol-5-yl)amino)-5,6,7,8-tetrahydroquinoline-3-carbonitrile], the IC50 at LRRK2 WT and at LRRK2 G2019S was 100 to 1000 nM each time.

By IC50 is commonly meant the concentration that gives 50% inhibition.
